Reference: patent US10864163B2, “Therapeutic agents and delivery with microspheres” (UCL Business PLC, priority 2013, dated 2020)
Entries after “also recorded” stand apart in the source; their conditions may differ.

Assays:
[1] = Attachment of API (doxorubicin) to wetted and non-wetted TIPS microspheres; format: physicochemical; settings: doxorubicin 0.5 mg/ml in water, overnight at room temperature, 150 rpm, centrifuged at 13000 rpm for 20 seconds
Protocol: 100 mg of TIPS microspheres was added to a 7 ml plastic container. The microspheres were wetted with 70% ethanol for 1 minute. The alcohol was removed and the microspheres washed with 5 ml deionised water. 1 ml of doxorubicin (0.5 mg/ml in water) was added to the container. The microspheres and doxorubicin solution were mixed by pipetting and incubated overnight at room temperature with agitation at 150 rpm on an orbital shaker. Control non-wetted microspheres were treated in the same manner. The microspheres were centrifuged at 13000 rpm for 20 seconds.

[2] = Release of API from doxorubicin-loaded wetted TIPS microspheres (FIG. 11d); format: physicochemical; settings: doxorubicin attached to pre-wetted TIPS microspheres

COc1cccc2c1C(=O)c1c(O)c3c(c(O)c1C2=O)C[C@@](O)(C(=O)CO)C[C@@H]3O[C@H]1C[C@H](N)[C@H](O)[C@H](C)O1 [doxorubicin]
binding of doxorubicin to the surface of non-wetted, hydrophobic microspheres ([1]; control non-wetted microspheres): separated from the non-wetted samples; also recorded: does not bind to the surface of non-wetted, hydrophobic microspheres
binding of doxorubicin to the surface of wetted TIPS microspheres ([1]; microspheres pre-wetted with 70% ethanol): remained bound to the surface of the wetted microspheres; also recorded: binds well to the surface of pre-wetted TIPS microspheres
release of the API from wetted TIPS microspheres [2]: controlled release of the API is observed over a prolonged period
